These results are taken from article PMC7913925, “Design and Evaluation of a Polypeptide That Mimics the Integrin Binding Site for EDA Fibronectin to Block Profibrotic Cell Activity” (International Journal of Molecular Sciences, 2021).

The subject of assay [1] is F-actin in NIH/3T3 fibroblasts. Kind of assay: F-actin staining. Conditions: 48 h, TGF-β1 10 ng/mL, AF38Pep 10 µg/mL. In kind it is cell-based, mouse. The protocol: Cells were grown to 40% confluence in 8-well glass chamber slides (Nunc, Thermo Fisher Scientific), prior to growth arrest and treatment. Cells were washed with PBS before fixation in 4% paraformaldehyde for 10 min at room temperature. Next, cells were permeabilized with 0.1% (v/v) Triton X-100 in PBS for 10 min at room temperature. For visualization of ECM, cells were fixed with 100% ice-cold methanol for 8 min at −20 °C. Slides were washed with PBS and blocked with 1% goat serum (TBD Science, Tianjin, China) for 30 min before washing with 0.1% (w/v) BSA in PBS. Subsequently, slides were incubated with monoclonal mouse anti-α-SMA antibody (Sigma-Aldrich, 1:50) diluted in 0.1% BSA-PBS, overnight at 4 °C. After further wash steps, slides were incubated with goat anti-mouse IgG CF-488 secondary antibody (Abcam, 1:1000) in 0.1% BSA-PBS for 1 h at room temperature and under darkness. For F-actin visualization, after fixation and permeabilization; cells were incubated with phalloidin conjugated to FITC (Sigma-Aldrich) in 0.1% BSA-PBS, overnight at 4 °C. Cells were then mounted in DAPI Fluoromount-G (Thermo Fisher Scientific) and imaged using a Zeiss Axio Imager Z1 UV fluorescence microscope (Zeiss, Jena, Germany) and a Leica TCS SP5 laser scanning confocal microscope (Leica Biosystems, Baden-Württemberg, Germany).

Assay [2] has as its system ERK1/2 in NIH/3T3 fibroblasts. Kind of assay: Western blot ERK1/2 phosphorylation. Conditions: TGF-β1 10 ng/mL, AF38Pep 10 µg/mL. In kind it is cell-based, mouse. As to the method: Total protein was extracted from cells in RIPA lysis buffer containing 1% protease inhibitor cocktail, 1% phenylmethylsulfonyl fluoride, and 1% sodium orthovanadate (Santa Cruz Biotechnology, Santa Cruz, CA, USA). Protein was quantified by Micro BCA Protein Assay Kit (Thermo Fisher Scientific) before 7.5% SDS-PAGE and transfer to nitrocellulose. Membranes were blocked with 5% bovine serum albumin (BSA; Sigma-Aldrich)/0.5% Tween-20 (Sigma-Aldrich)/PBS for 1 h, RT, followed by incubation with primary antibodies diluted in 1% BSA/0.1% Tween-20/PBS, overnight at 4 °C. Primary antibodies were: anti-phosphoY204/Y187 ERK1/2 (1:1000); anti-ERK1/2 (1:1000); anti-phosphoY861 FAK (1:1000); anti-FAK (1:2000). Immunoblotting for anti-GAPDH (1:2500) was used as a protein loading control. Following wash steps, membranes were incubated in goat anti-rabbit IgG H&L secondary antibody (horseradish peroxidase, HRP conjugate, […]) (Abcam; 1:5000 dilution, 1% BSA/0.1% Tween-20/PBS). Detection was performed using Immobilon reagent (Merck Millipore, Burlington, MA, USA) and imaged using a Tanon 5500 Chemiluminescent Imaging System (Tanon, Shanghai, China).
On the technique in general: In western blotting, separated proteins are transferred to a membrane and probed.

Bridges are numbered along the chain shown (N, C = ends). Where no end group is shown, it is not given here.

On to “VMPYISTTPAKPCTSENCGNSWYGGFKSKNENKIYFIN (disulfide 13-18 (inferred)) [AF38Pep]”, for which the F-actin fiber assembly result in assay [1] was “cellular actin reassembly into F-actin fibers still occurred”. Moreover, the figures for the ERK1/2 phosphorylation result in assay [2] (1 h) and in assay [2] (12 h) were “significantly suppressed” and “not prevented”, respectively.
